Data published in patent US7906522B2, “2-aminoquinazoline derivatives” (Kyowa Hakko Kirin Co., Ltd, priority 2005, dated 2011).

target: T1, Activated human p38α (Homo sapiens, UniProt Q16539); assay: p38MAP kinase inhibition test; type: biochemical; conditions: at a concentration of 1 μmol/L; substrate myelin basic protein, ATP 20 μmol/L, [γ-32P]ATP; read-out: enzyme inhibitory activity
T1 construct: purchased Upstate Biotechnology Inc. 14-251
Method: p38MAP Kinase Inhibition Test
Activated human p38α was purchased from Upstate Biotechnology Inc. (Catalog No. 14-251). P38MAP kinase inhibitory activity was measured by the procedure described below with reference to the method by Whitmarsh A. J. and Davis R. J. [Methods in Enzymology (Method. Enzymol.), vol. 332, p. 319-336 (2001)]. As the substrate to be phosphorylated, a myelin basic protein (Catalog No. 133-13493, Wako Pure Chemical Industries, Ltd.) (20 μg/assay) was used. The reaction was carried out in a solution containing 3-[N-Morpholino]propanesulfonic acid (MOPS) (20 mmol/L, pH 7.2), β-glycerophosphoric acid (Sigma Corp.) (25 mmol/L), ethylenebis(oxyethylenenitrilo)tetraacetic acid (EGTA) (1 mmol/L), […] (Sigma-Aldrich Corp.) (1 mmol/L), dithiothreitol (DTT, Wako Pure Chemical Industries, Ltd.) (1 mmol/L), adenosine 5′-triphosphate (ATP, Sigma Corp.) (20 μmol/L), and MgCl2 (18.75 mmol/L) (total 40 μL/assay). The reaction was started by adding human p38α and [γ-^32P]ATP (1 μCi/assay), and incubation was performed at 30° C. for 15 minutes. The reaction was terminated by adding 4.5% v/v phosphoric acid (10 μL/well). Then, 45 μL of the reaction mixture was adsorbed onto phosphocellulose paper (p81 paper, Code No. 3698023, Whatman International, Maidstone, UK). The phosphocellulose paper was washed with 0.75% v/v phosphoric acid. Then, the radioactivity of the phosphorylated myelin basic protein ([^32P]) remaining on the phosphocellulose paper was measured with a scintillation counter (TRI-CARB2700TR, PerkinElmer, Boston, Mass., USA) using program No. 27 (data mode: cpm, measurement time: 1 min, Background substract: none, energy range measured: LL 0.0-UL 2000) or a scintillation counter (LS6500, BeckmanCoulter, Fullerton, Calif., USA) using program No. 17 (data mode: cpm, measurement time: 1 min, Background substract: none, energy range measured: high). The test compound was dissolved in DMSO before addition.

T1 sequence (Q16539 whole entry): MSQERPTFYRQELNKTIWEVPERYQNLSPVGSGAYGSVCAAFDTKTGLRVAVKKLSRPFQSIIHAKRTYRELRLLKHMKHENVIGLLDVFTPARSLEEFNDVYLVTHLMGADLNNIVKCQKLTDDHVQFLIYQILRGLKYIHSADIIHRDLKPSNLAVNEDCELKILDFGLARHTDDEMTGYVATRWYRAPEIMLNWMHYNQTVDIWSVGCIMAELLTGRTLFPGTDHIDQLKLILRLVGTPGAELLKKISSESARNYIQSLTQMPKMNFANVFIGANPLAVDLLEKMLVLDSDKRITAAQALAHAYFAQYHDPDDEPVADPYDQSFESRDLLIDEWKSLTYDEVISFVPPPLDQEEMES

inhibition at 1 µM	SMILES
≥ 50%	CC(C)Nc1ncc2cc(-c3ccccc3Cl)c(OCC(=O)N(C)C)cc2n1 [Compound 37, 6-(2-Chlorophenyl)-7-(N,N-dimethylcarbamoylmethyloxy)-2-isopropylaminoquinazoline]
≥ 50%	CC(C)Nc1ncc2cc(-c3ccccc3Cl)c(-c3ccc(C(=O)O)cc3)cc2n1 [Compound 41, 7-(4-Carboxyphenyl)-6-(2-chlorophenyl)-2-isopropylaminoquinazoline]
≥ 50%	CC(C)Nc1ncc2cc(-c3ccccc3Cl)c(-c3cccc(Cl)c3)cc2n1 [Compound 43, 6-(2-Chlorophenyl)-7-(3-chlorophenyl)-2-isopropylaminoquinazoline]
≥ 50%	COc1cc2nc(NC(C)C)ncc2cc1-c1ccccc1 [Compound 44, 2-Isopropylamino-7-methoxy-6-phenylquinazoline]
≥ 50%	COc1cc2nc(NC(C)C)ncc2cc1-c1cccc(N)c1 [Compound 50, 6-(3-Aminophenyl)-2-isopropylamino-7-methoxyquinazoline]
≥ 50%	COc1cc2nc(NC(C)C)ncc2cc1-c1cccc(NC(C)=O)c1 [Compound 52, 6-[(3-Acetylamino)phenyl]-2-isopropylamino-7-methoxyquinazoline]
≥ 50%	COc1cc2nc(NC(C)C)ncc2cc1-c1ccccc1[N+](=O)[O-] [Compound 55, 2-Isopropylamino-7-methoxy-6-(2-nitrophenyl)quinazoline]
≥ 50%	COc1cc2nc(NC(C)C)ncc2cc1-c1ccccc1NC(C)=O [Compound 56, 6-[2-(Acetylamino)phenyl]-2-isopropylamino-7-methoxyquinazoline]
≥ 50%	COc1cc2nc(NC(C)C)ncc2cc1-c1ccccc1C=NO [Compound 58]
≥ 50%	CON=Cc1ccccc1-c1cc2cnc(NC(C)C)nc2cc1OC [Compound 59, 2-Isopropylamino-7-methoxy-6-[2-(methoxyimino)phenyl]quinazoline]
≥ 50%	CCCOC(=O)c1c(OC)c(-c2ccccc2Cl)cc2cnc(NC(C)C)nc12 [Compound 62, 6-(2-Chlorophenyl)-2-isopropylamino-7-methoxy-8-(propoxycarbonyl)quinazoline]
≥ 50%	CCCOC(=O)c1c(O)c(-c2ccccc2Cl)cc2cnc(NC(C)C)nc12 [Compound 63, 6-(2-Chlorophenyl)-7-hydroxy-2-isopropylamino-8-(propoxycarbonyl)quinazoline]
≥ 50%	COc1c(-c2ccccc2Cl)cc2cnc(NC(C)C)nc2c1C(=O)N1CCCCC1 [Compound 67, 6-(2-Chlorophenyl)-2-isopropylamino-7-methoxy-8-(piperidinocarbonyl)quinazoline]
≥ 50%	CCCNC(=O)c1c(OC)c(-c2ccccc2Cl)cc2cnc(NC(C)C)nc12 [Compound 69, 6-(2-Chlorophenyl)-2-isopropylamino-7-methoxy-8-(N-propylaminocarbonyl)quinazoline]
≥ 50%	CON(C)C(=O)c1c(O)c(-c2ccccc2Cl)cc2cnc(NC(C)C)nc12 [Compound 72, 6-(2-Chlorophenyl)-7-hydroxy-2-isopropylamino-8-(N-methoxy-N-methylaminocarbonyl)quinazoline]
≥ 50%	C=Cc1c(OC)c(-c2ccccc2Cl)cc2cnc(NC(C)C)nc12 [Compound 76, 6-(2-Chlorophenyl)-2-isopropylamino-7-methoxy-8-vinylquinazoline]
≥ 50%	CC(=O)c1c(O)c(-c2ccccc2Cl)cc2cnc(NC(C)C)nc12 [Compound 78, 8-Acetyl-6-(2-chlorophenyl)-7-hydroxy-2-(isopropylamino)quinazoline]
≥ 50%	CC(=O)c1c(OCC(=O)O)c(-c2ccccc2Cl)cc2cnc(NC(C)C)nc12 [Compound 80, 8-Acetyl-7-(carboxymethyloxy)-6-(2-chlorophenyl)-2-(isopropylamino)quinazoline]
≥ 50%	CC(C)Nc1ncc2cc(-c3ccccc3Cl)c(OCC(C)(C)O)c(C(C)(C)O)c2n1 [Compound 81, 6-(2-Chlorophenyl)-8-(1-hydroxy-1-methylethyl)-7-(2-hydroxy-2-methylpropyloxy)-2-(isopropylamino)quinazoline]
≥ 50%	COc1c(-c2ccc(F)cc2F)cc2cnc(NC(C)C)nc2c1Br [Compound 82, 8-Bromo-6-(2,4-difluorophenyl)-2-isopropylamino-7-methoxyquinazoline]

Continued, compound first:

SMILES	inhibition at 1 µM
CC(C)Nc1ncc2cc(-c3ccccc3Cl)c(OCC(=O)N3CCCCC3)cc2n1 [Compound 38, 6-(2-Chlorophenyl)-2-isopropylamino-7-[(piperidinocarbonyl)methyloxy]quinazoline]	≥ 50%
CC(C)Nc1ncc2cc(-c3ccccc3Cl)c(OCC(=O)N3CCOCC3)cc2n1 [Compound 39, 6-(2-Chlorophenyl)-2-isopropylamino-7-[(morpholinocarbonyl)methyloxy]quinazoline]	≥ 50%
CC(C)Nc1ncc2cc(-c3ccccc3Cl)c(OCC(=O)N3CCN(C)CC3)cc2n1 [Compound 40, 6-(2-Chlorophenyl)-2-isopropylamino-7-[(4-methylpiperazin-1-ylcarbonyl)methyloxy]quinazoline]	≥ 50%
CC(C)Nc1ncc2cc(-c3ccccc3Cl)c(-c3cccc(C(=O)O)c3)cc2n1 [Compound 42, 7-(3-Carboxyphenyl)-6-(2-chlorophenyl)-2-isopropylaminoquinazoline]	≥ 50%
COc1cc2nc(NC(C)C)ncc2cc1-c1ccc(O)cc1 [Compound 47, 6-(4-Hydroxyphenyl)-2-isopropylamino-7-methoxyquinazoline]	≥ 50%
COc1cc2nc(NC(C)C)ncc2cc1-c1cccc(NC(=O)c2ccnc(N3CCOCC3)c2)c1 [Compound 53, 2-Isopropylamino-7-methoxy-6-{3-[(2-morpholinopyridin-4-yl)carbonylamino]phenyl}quinazoline]	≥ 50%
COc1cc2nc(NC(C)C)ncc2cc1-c1cccc(NC(=O)c2cccc(N(C)C)c2)c1 [Compound 54, 2-Isopropylamino-7-methoxy-6-{3-[(3-dimethylaminophenyl)carbonylamino]phenyl}quinazoline]	≥ 50%
COc1cc2nc(NC(C)C)ncc2cc1-c1ccccc1C=O [Compound 57, 6-(2-Formylphenyl)-2-isopropylamino-7-methoxyquinazoline]	≥ 50%
COc1c(-c2ccccc2Cl)cc2cnc(NC(C)C)nc2c1Br [Compound 60, 8-Bromo-6-(2-chlorophenyl)-2-isopropylamino-7-methoxyquinazoline]	≥ 50%
COC(=O)c1c(OC)c(-c2ccccc2Cl)cc2cnc(NC(C)C)nc12 [Compound 61, 6-(2-Chlorophenyl)-2-isopropylamino-7-methoxy-8-(methoxycarbonyl)quinazoline]	≥ 50%
COc1c(-c2ccccc2Cl)cc2cnc(NC(C)C)nc2c1C(=O)N1CCOCC1 [Compound 66, 6-(2-Chlorophenyl)-2-isopropylamino-8-(morpholinocarbonyl)-7-methoxyquinazoline]	≥ 50%
CCN(CC)C(=O)c1c(OC)c(-c2ccccc2Cl)cc2cnc(NC(C)C)nc12 [Compound 68, 6-(2-Chlorophenyl)-8-(N,N-diethylaminocarbonyl)-2-isopropylamino-7-methoxyquinazoline]	≥ 50%
COc1c(-c2ccccc2Cl)cc2cnc(NC(C)C)nc2c1C(=O)N(C)OC [Compound 71, 6-(2-Chlorophenyl)-2-isopropylamino-7-methoxy-8-(N-methoxy-N-methylaminocarbonyl)quinazoline]	≥ 50%
CCOC(=O)/C=C/c1c(OC)c(-c2ccccc2Cl)cc2cnc(NC(C)C)nc12 [Compound 73, 6-(2-Chlorophenyl)-8-[(E)-2-(ethoxycarbonyl)ethenyl]-7-methoxy-2-(isopropylamino)quinazoline]	≥ 50%
COc1c(-c2ccccc2Cl)cc2cnc(NC(C)C)nc2c1/C=C/C(=O)O [Compound 74, 8-[(E)-2-carboxyethenyl]-6-(2-chlorophenyl)-7-methoxy-2-(isopropylamino)quinazoline]	≥ 50%
COc1c(-c2ccccc2Cl)cc2cnc(NC(C)C)nc2c1C(C)=O [Compound 77, 8-Acetyl-6-(2-chlorophenyl)-2-isopropylamino-7-methoxyquinazoline]	≥ 50%
CCOC(=O)COc1c(-c2ccccc2Cl)cc2cnc(NC(C)C)nc2c1C(C)=O [Compound 79, 8-Acetyl-6-(2-chlorophenyl)-7-(ethoxycarbonylmethyloxy)-2-(isopropylamino)quinazoline]	≥ 50%
